From paper PMC9237828, “Chemically Tuning Resveratrol for the Effective Killing of Gram-Positive Pathogens” (Journal of Natural Products, 2022)
In brackets after ≈: the same amount, converted by molar mass. Where two headings read alike, the source gives them in different places. Non-standard residues stand in square brackets, D forms with d. Residues, ends and D or L forms follow the SMILES beside them. Orn = NCCC[C@H](N)C(=O)O

Assays:
S.aureus LMG15975 = experiment: microbe, parasite or virus in culture; format: cell-based, Staphylococcus aureus; conditions: Staphylococcus aureus, LMG15975, 20 h, read-out: Minimal Inhibition Concentration (MIC) S.aureus LMG15975
E. faecium LMG11423 = experiment: microbe, parasite or virus in culture; format: cell-based; conditions: Enterococcus faecium, LMG11423, 20 h, read-out: Minimal Inhibition Concentration (MIC) E. faecium LMG11423
S.aureus LMG8224 = experiment: microbe, parasite or virus in culture; format: cell-based, Staphylococcus aureus; conditions: Staphylococcus aureus, LMG8224, 20 h, read-out: Minimal Inhibition Concentration (MIC) S.aureus LMG8224
B. cereus ATCC10987 [1] = experiment: microbe, parasite or virus in culture; format: cell-based, Bacillus cereus; conditions: Bacillus cereus, ATCC10987, 20 h, read-out: Minimal Inhibition Concentration (MIC) B. cereus ATCC10987
S.aureus LMG10147 = experiment: microbe, parasite or virus in culture; format: cell-based, Staphylococcus aureus; conditions: Staphylococcus aureus, LMG10147, 20 h, read-out: Minimal Inhibition Concentration (MIC) S.aureus LMG10147
C. tetani CECT4629 = experiment: microbe, parasite or virus in culture; format: cell-based; conditions: Clostridium tetani, CECT4629, 24 h, read-out: Minimal Inhibition Concentration (MIC) C. tetani CECT4629
E. faecium LMG16003 = experiment: microbe, parasite or virus in culture; format: cell-based; conditions: Enterococcus faecium, LMG16003, 20 h, read-out: Minimal Inhibition Concentration (MIC) E. faecium LMG16003
E. faecalis LMG08222 = experiment: microbe, parasite or virus in culture; format: cell-based, Enterococcus faecalis; conditions: Enterococcus faecalis, LMG08222, 20 h, read-out: Minimal Inhibition Concentration (MIC) E. faecalis LMG08222
C. perfringens CECT376 = experiment: microbe, parasite or virus in culture; format: cell-based; conditions: Clostridium perfringens, CECT376, 24 h, read-out: Minimal Inhibition Concentration (MIC) C. perfringens CECT376
[2] = test system: panel of aerobic and anaerobic Gram-positive bacteria; experiment: organism not typed; format: cell-based
C. ihumii AP5 = experiment: MIC test, anaerobes; format: cell-based
Experimental: (§1) The resveratrol derivatives were serially diluted in cMHB (BD Difco) in 96-well microplates. Plates were then inoculated with the indicator bacteria at a final concentration of 5 × 10^5 CFU/mL and incubated at 37 °C for 20 h. In the case of the anaerobic bacteria (Clostridium and Clostridioides), the test was performed following the recommendation of CLSI for anaerobes[77] but using RCM medium instead of cMHB. The cultures were cultivated inside an anaerobic chamber at 37 °C for 24 h. All the tests were performed in triplicate.

C. beijerinckii B504 = experiment: MIC test, anaerobes; format: cell-based
Experimental: as §1

C. botulinum CECT551 = experiment: microbe, parasite or virus in culture; format: cell-based; conditions: Clostridium botulinum, CECT551, 24 h, read-out: Minimal Inhibition Concentration (MIC) C. botulinum CECT551
E. faecalis LMG16216 = experiment: microbe, parasite or virus in culture; format: cell-based, Enterococcus faecalis; conditions: Enterococcus faecalis, LMG16216, 20 h, read-out: Minimal Inhibition Concentration (MIC) E. faecalis LMG16216
B. cereus ATCC14579 = experiment: microbe, parasite or virus in culture; format: cell-based, Bacillus cereus; conditions: Bacillus cereus, ATCC14579, 20 h, read-out: Minimal Inhibition Concentration (MIC) B. cereus ATCC14579
E. faecalis V583 = experiment: microbe, parasite or virus in culture; format: cell-based, Enterococcus faecalis; conditions: Enterococcus faecalis, V583, 20 h, read-out: Minimal Inhibition Concentration (MIC) E. faecalis V583
C. difficile CECT531 = experiment: microbe, parasite or virus in culture; format: cell-based, Clostridioides difficile; conditions: Clostridioides difficile, CECT531, 24 h, read-out: Minimal Inhibition Concentration (MIC) C. difficile CECT531
E. coli LMG8224 = experiment: Outer membrane permeabilization test (MIC with or without L-11 peptide); conditions: for MIC: Escherichia coli, LMG8224, read-out: MIC (μM) L-11 + 0 μM; for MIC (μM) L-11 + 4 μM: presence of 4 μM L-11 outer-membrane-perturbing peptide
in vitro = conditions: human
B. cereus ATCC10987 [3] = experiment: Effect of the compounds on actively growing bacteria (lysis, OD600); format: cell-based, Bacillus cereus; conditions: 2×, 1×, and 0.5× the MIC added at mid exponential phase
[4] = test system: B. cereus ATCC 10987, E. faecalis V583, E. faecium LMG 16003, and S. aureus LMG 8224; format: cell-based; conditions: 2-fold the MIC, 24 h, cMHB
B. cereus ATCC10987 [5] = experiment: Membrane potential assay DiSC3(5); conditions: 2×, 1×, and 0.5× the MIC
[6] = 24 h; read-out: Minimal Inhibition Concentration (MIC) C. ihumii AP5
[7] = Clostridium beijerinckii, B504, 24 h; read-out: Minimal Inhibition Concentration (MIC) C. beijerinckii B504

Row | SMILES | MIC (S.aureus LMG15975) | MIC (E. faecium LMG11423) | MIC (S.aureus LMG8224) | MIC (B. cereus ATCC10987 [1]) | MIC (S.aureus LMG10147) | MIC (C. tetani CECT4629) | MIC (E. faecium LMG16003) | MIC (E. faecalis LMG08222) | MIC (C. perfringens CECT376) | MIC (C. ihumii AP5; [6]) | MIC (C. beijerinckii B504; [7]) | MIC (C. botulinum CECT551) | MIC (E. faecalis LMG16216) | MIC (B. cereus ATCC14579) | MIC (E. faecalis V583) | MIC (C. difficile CECT531) | MIC (E. coli LMG8224) | MIC (μM) L-11 + 4 μM (E. coli LMG8224) | IC50 (in vitro) | other results
1 | CCCCOc1ccc(/C=C/c2cc(OS(=O)(=O)O)cc(OS(=O)(=O)O)c2)cc1 [compound 14, 4′-butyl-3,5-disulfate resveratrol] | 32 µM (≈ 14.2 µg/mL) | 32 µM (≈ 14.2 µg/mL) | 32 µM (≈ 14.2 µg/mL) | 128 µM (≈ 56.9 µg/mL) | 32 µM (≈ 14.2 µg/mL) | 16 µM (≈ 7.11 µg/mL) | 64 µM (≈ 28.4 µg/mL) | 32 µM (≈ 14.2 µg/mL) | 32 µM (≈ 14.2 µg/mL) | 32 µM (≈ 14.2 µg/mL) | 16 µM (≈ 7.11 µg/mL) | 21.3 ± 5.3 µM (≈ 9.47 µg/mL) | 16 µM (≈ 7.11 µg/mL) | 128 µM (≈ 56.9 µg/mL) | 64 µM (≈ 28.4 µg/mL) | 32 µM (≈ 14.2 µg/mL) | – | – | – | antibacterial activity against the Gram-positive panel [2]: active against all Gram-positive bacterial strains examined
2 | COc1cc(/C=C/c2ccc(O[C@@H]3O[C@H](C(=O)O)[C@@H](O)[C@H](O)[C@H]3O)cc2)cc(OC)c1 [compound 30, PTER glucuronate] | 32 µM (≈ 13.8 µg/mL) | – | 32 µM (≈ 13.8 µg/mL) | 16 µM (≈ 6.92 µg/mL) | 32 µM (≈ 13.8 µg/mL) | 4 µM (≈ 1.73 µg/mL) | – | 64 µM (≈ 27.7 µg/mL) | 5.3 ± 1.3 µM (≈ 2.29 µg/mL) | 8 µM (≈ 3.46 µg/mL) | 10.7 ± 2.6 µM (≈ 4.63 µg/mL) | 4 µM (≈ 1.73 µg/mL) | 128 µM (≈ 55.4 µg/mL) | 13.3 ± 2.6 µM (≈ 5.75 µg/mL) | 128 µM (≈ 55.4 µg/mL) | 13.3 ± 2.6 µM (≈ 5.75 µg/mL) | > 128 µM | 16 ± 0 µM | – | MIC [2]: < 16 µM
3 | CC[Si](CC)(CC)Oc1ccc(/C=C/c2cc(O)cc(O)c2)cc1 [compound 31] | – | – | – | – | – | – | – | – | – | – | – | – | – | – | – | – | – | – | 32.1 ± 0.9 µM | –
4 | CC(C)[Si](Oc1ccc(/C=C/c2cc(O)cc(O)c2)cc1)(C(C)C)C(C)C [compound 33] | 128 µM (≈ 49.2 µg/mL) | 16 µM (≈ 6.15 µg/mL) | 128 µM (≈ 49.2 µg/mL) | 32 µM (≈ 12.3 µg/mL) | 128 µM (≈ 49.2 µg/mL) | 6.7 ± 1.3 µM (≈ 2.58 µg/mL) | 5.3 ± 1.3 µM (≈ 2.04 µg/mL) | 8 µM (≈ 3.08 µg/mL) | 26.6 ± 5.3 µM (≈ 10.2 µg/mL) | 13.3 ± 2.6 µM (≈ 5.12 µg/mL) | 21.3 ± 5.3 µM (≈ 8.19 µg/mL) | 10.7 ± 2.6 µM (≈ 4.12 µg/mL) | 8 µM (≈ 3.08 µg/mL) | 26.6 ± 5.3 µM (≈ 10.2 µg/mL) | 21.3 ± 5.3 µM (≈ 8.19 µg/mL) | 16 µM (≈ 6.15 µg/mL) | > 128 µM | 21.3 ± 5.3 µM | 2.8 ± 0.2 µM | lysis of actively growing cells (B. cereus ATCC10987 [3]): most effective derivatives lysing the cells; bactericidal/bacteriostatic effect [4]: bactericidal
5 | CC(C)[Si](Oc1cc(/C=C/c2ccc(OS(=O)(=O)O)cc2)cc(OS(=O)(=O)O)c1)(C(C)C)C(C)C [compound 35, 3,4′-Disulfate-5-triisopropylsilyl resveratrol] | 16 µM (≈ 8.72 µg/mL) | 16 µM (≈ 8.72 µg/mL) | 13.3 ± 2.6 µM (≈ 7.24 µg/mL) | 16 µM (≈ 8.72 µg/mL) | 21.3 ± 5.3 µM (≈ 11.6 µg/mL) | 64 µM (≈ 34.9 µg/mL) | 13.3 ± 2.6 µM (≈ 7.24 µg/mL) | 13.3 ± 2.6 µM (≈ 7.24 µg/mL) | 64 µM (≈ 34.9 µg/mL) | – | – | 64 µM (≈ 34.9 µg/mL) | 8 µM (≈ 4.36 µg/mL) | 21.3 ± 5.3 µM (≈ 11.6 µg/mL) | 16 µM (≈ 8.72 µg/mL) | 32 µM (≈ 17.4 µg/mL) | > 128 µM | 21.6 ± 5.3 µM | – | MIC (C. ihumii AP5; 24 h, read-out: Minimal Inhibition Concentration (MIC) C. ihumii AP5): 64 µM (≈ 34.9 µg/mL); MIC (C. beijerinckii B504; Clostridium beijerinckii, B504, 24 h, read-out: Minimal Inhibition Concentration (MIC) C. beijerinckii B504): 64 µM (≈ 34.9 µg/mL)
6 | CC(C)C[C@@H]1NC(=O)[C@H](CCCN)NC(=O)[C@H](C(C)C)NC(=O)[C@@H]2CCCN2C(=O)[C@@H](Cc2ccccc2)NC(=O)[C@H](CC(C)C)NC(=O)[C@H](CCCN)NC(=O)[C@H](C(C)C)NC(=O)[C@@H]2CCCN2C(=O)[C@@H](Cc2ccccc2)NC1=O [gramicidin S, Gramicidin S] (cyclo(V[Orn]L[dF]PV[Orn]L[dF]P)) | – | – | – | – | – | – | – | – | – | – | – | – | – | – | – | – | – | – | – | membrane potential change (DiSC3(5)) (B. cereus ATCC10987 [5]): induced a strong membrane depolarization
